# Measurements: patent US9073820B2, “Pharmaceutical compositions comprising napthamides” (OREGON HEALTH & SCIENCE UNIVERSITY, priority 2011, dated 2015)
# Like-named read-outs stand apart in the source and are kept apart here.
# Key:
# [1] = system: CREB-mediated gene transcription; assay: CREB reporter (pCRE-RLuc) assay in HEK 293T cells, forskolin-stimulated; type: cell-based; settings: Homo sapiens, 5 h, read-out: CREB reporter inhibition (IC50)
# Experimental: HEK293T cells in a 10-cm plate were transfected with pCRE-RLuc (6.0 μg) using Lipofectamine™ 2000 (Invitrogen, Carlsbad, Calif.) according to manufacturer's protocol. After 3 h, the transfected cells were collected and replated into 96-well plates (1-2×10^4 cells/well). The cells were allowed to attach to the bottom of the wells for overnight, when compounds of different concentrations were added to the cells. Forskolin (final concentration of 10 μM, LC Laboratories, Woburn, Mass.) was added 30 min after the addition of the compounds. The cells were then incubated at 37° C. for 5 h. The media in the wells were removed and the cells were then lysed in 30 μL of 1×Renilla luciferase lysis buffer (Promega, Madison, Wis.). To measure Renilla luciferase activity, five μL of the lysate was combined with 30 μL of benzyl-coelenterazine (Nanolight, Pinetop, Ariz.) solution in PBS (pH 7.4, 10 μg/mL). The sample protein concentration was determined by Dye Reagent Concentrate (Bio-Rad, Hercules, Calif.). The Renilla luciferase activity was normalized to protein content in each well and expressed as relative luciferase unit/μg protein (RLU/μg protein). The IC50 was derived from non-linear regression analysis of the RLU/μg protein-concentration curve in Prism 5.0 (La Jolla, Calif.).
# [2] = system: MDA-MB-468 cells (human breast cancer cells); assay: MTT cell growth inhibition, 72 h, MDA-MB-468; type: cell-based; settings: MDA-MB-468, 72 h, read-out: MDA-MB-468 (GI50)
# Experimental: (§1) A549 (human lung cancer cells), MCF-7 (human breast cancer cells), MDA-MB-231 (human breast cancer cells) and MDA-MB-468 cells (human breast cancer cells) were maintained in Dulbecco's modified Eagle medium (DMEM, Invitrogen, Carlsbad, Calif.) supplemented with 10% (v/v) fetal calf serum (Sigma, St. Louis, Mo.), 10 μg/mL penicillin and 10 μg/mL streptomycin (Invitrogen, Carlsbad, Calif.) at 37° C. under 5% CO2. On the day of experiment, different concentrations of the drugs (final concentration 10^−8-10^−4 M) in duplicates were added to the cells and the cells were further incubated for 72 h. Then, the number of live cells was quantified by 3-(4,5-dimethyl-2-thiazolyl)-2,5-diphenyl-2H-tetrazolium bromide (MTT reagent, Sigma, St. Louis, Mo.).
# (§2) The amount of reduced MTT formazan generated by live cells was determined by its absorbance at 570 nm after subtracting the background absorbance at 690 nm. The percent of cell growth was expressed as (A570(treated)−A570(initial))/(A570(vehicle treated)−A570(initial))*100, where A570(initial) represents initial cell population when drugs are added. The GI50 were derived from non-linear regression analysis of the dose-response curve using Prism 4.0 (GraphPad). […] Data were presented as mean±SD of at least two measurements in duplicates unless noted.
# [3] = system: MDA-MB-231 (human breast cancer cells); assay: MTT cell growth inhibition, 72 h, MDA-MB-231; type: cell-based; settings: MDA-MB-231, 72 h, read-out: MDA-MB-231 (GI50)
# Experimental: as §1, §2
# KIX-KID = molecular target: T1, KIX-KID (Homo sapiens, UniProt Q92793); assay: KIX-KID inhibition, split Renilla luciferase complementation (RLucC-KIX and KID-RLucN); type: binding; settings: 4° C., 24 h
# T1 construct: made in house
# Experimental: RLucC-KIX (15 ng) and KID-RLucN-containing cell lysates (0.5 mg) were mixed together in Renilla luciferase lysis buffer (Promega, Madison, Wis.) in the presence of different concentrations of compounds. The final volume of the incubation mixture is 30 μL. The mixture was incubated at 4° C. for 24 h. Then Renilla luciferase activity was measured by combining 5 μL of incubation mixture with 30 μL of coelenterazine solution in PBS (pH 7.4, 10 μg/mL).
# [4] = system: A549 (human lung cancer cells); assay: MTT cell growth inhibition, 72 h, A549; type: cell-based; settings: A549, 72 h, read-out: A549 (GI50)
# Experimental: as §1, §2
# [5] = system: MCF-7 (human breast cancer cells); assay: MTT cell growth inhibition, 72 h, MCF-7; type: cell-based; settings: MCF7, 72 h, read-out: MCF-7 (GI50)
# Experimental: as §1, §2
# T1 sequence (Q92793 587-666 limits assumed): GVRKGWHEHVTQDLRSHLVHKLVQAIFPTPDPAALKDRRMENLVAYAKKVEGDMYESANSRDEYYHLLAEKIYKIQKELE
Structure (SMILES),IC50 ([1]; HEK-293T) [nM],GI50 [2] [nM],GI50 [3] [nM],"IC50 ([1]; HEK 293T, forskolin 10 μM) [nM]",IC50 (KIX-KID) [nM],also measured
NCCCOc1cc2ccccc2cc1C(=O)NCCOc1nc2ccccc2cc1C(=O)Nc1ccc(Cl)cc1O [Compound 6],72 ± 9,13 ± 2,190 ± 120,,,
"NCCCOc1cc2ccccc2cc1C(=O)Nc1ccc(Cl)cc1OC(=O)c1cc2ccccc2cc1OCCCN [Compound 3, reference compound]",,,,2270 ± 280,8020 ± 360,
NCCCOc1nc2ccccc2cc1C(=O)NCCOc1nc2ccccc2cc1C(=O)Nc1ccc(Cl)cc1F [Compound 9],440 ± 340,,370 ± 250,,,
"COc1cc2ccccc2cc1C(=O)Nc1ccccc1OC(=O)c1cc2ccccc2cc1OC [Compound 2, reference compound]",,,,1950 ± 1140,170 ± 120,"GI50 ([4]; MTT, mean±SD): 8780 ± 2550 nM; GI50 ([5]; MTT, mean±SD): 3380 ± 490 nM; GI50 ([2]; MTT, mean±SD): 8130 ± 5470 nM; GI50 ([3]; MTT, mean±SD): 23500 ± 2270 nM"
NCCCOc1nc2ccccc2cc1C(=O)NCCOc1nc2ccccc2cc1C(=O)Nc1ccc(Cl)cc1O [Compound 8],4030 ± 200,290 ± 55,540 ± 130,,,
NCCCOc1nc2ccccc2cc1C(=O)NCCOc1cc2ccccc2cc1C(=O)Nc1ccc(Cl)cc1O [Compound 7],170 ± 66,140 ± 24,840 ± 180,,,GI50 [4]: 640 nM; GI50 [5]: 190 nM
"O=C(Nc1ccc(Cl)cc1)c1cc2ccccc2cc1O [Compound 1, reference compound]",,,,2290 ± 310,2900 ± 810,"GI50 ([2]; MTT, mean±SD): 1460 ± 300 nM; GI50 ([3]; MTT, mean±SD): 2350 ± 600 nM"
